≈ marks a conversion by molar mass, not a printed value. Bounds are passed on as bounds.

In assay [1] the test system is Acinetobacter baumannii DSM-30008. The assay is described as follows: MIC assay of crude extracts, relative activity vs darobactin A. The assay is classed as cell-based. The note with it: crude extract, relative to darobactin A, amount from LC-MS AUC. As to the method:
(§1) Crude extracts of darobactin derivatives obtained by the heterologous expression and separation protocol described above were tested for their activity against exemplified Gram-negative bacteria with a minimum inhibitory concentration (MIC) assay. The presence of darobactin derivatives in the crude extracts was verified by checking the expected masses via LC-MS.
(§2) For the MIC assay, 10 μl of crude extract of each test sample, diluted in 50% methanol/H2O, was added each into a well of the first row of a 96 well plate. […] Then, 75 μl of cation-adjusted Mueller-Hinton broth medium was added to each well and the samples contained in the first row were mixed with the 75 μl medium/extract mixture. Starting from the […] mixtures in the first row, serial dilutions of the respective mixtures were prepared in corresponding subjacent rows of the 96 well plate. Bacterial suspensions of each strain to be tested were diluted 1:100 in cation-adjusted Mueller-Hinton broth to obtain a final inoculum of approximately 10^6 CFU/mL. 75 μl of each bacterial suspension to be tested was added to the respective crude extract samples in the wells of the 96 well plate and the plates were incubated at either 30° C. or 37° C. for at least 24 h under static conditions. Plates were then checked visually and MIC was determined as lowest concentration where no visible growth was observed. In order to quantify the activity of the obtained darobactin derivatives, their relative activity in relation to the activity of darobactin A was determined. The amount of darobactin derivative present in the extract test sample was calculated based on the area under the curve (AUC) of the mass peak as automatically calculated by software DataAnalysis 4.2 and extracted from the LC-MS measurements of each of the crude extract samples. Using the AUC of the mass peak of darobactin A (DA) as calibration standard, i.e. ratio between AUC of darobactin derivative and darobactin A was correlated to amount of compound present in sample. The results of activities of tested darobactin derivatives against exemplified Gram-negative bacteria as compared to the activity of darobactin A are summarized in Table 5 below.

The test system of assay [2] is Klebsiella pneumoniae DSM-30104. The description is as above. The assay is classed as cell-based. The note with it: crude extract, relative to darobactin A, amount from LC-MS AUC. As to the method: as §1, §2
The subject of assay [3] is Pseudomonas aeruginosa PA01. The assay is described as above. The assay is classed as cell-based. The note with it: crude extract, relative to darobactin A, amount from LC-MS AUC. As for the experimental part:
as §1, §2

In assay [4] the test system is E. coli ATCC25922. Described as above. To be noted: crude extract, relative to darobactin A, amount from LC-MS AUC. The assay is classed as cell-based, Escherichia coli. As to the method: as §1, §2
The test system of the next assay is K. pneumoniae DSM-30104. Briefly: Microbroth dilution of crude extracts, concentration factor at full growth inhibition. The format is cell-based, Klebsiella pneumoniae. As to the method: (§3) Crude extracts containing the respective darobactin derivatives obtained by the heterologous expression and separation protocol described above were tested for their activity against exemplified Gram-negative bacteria in standard microbroth dilution assays. The presence of darobactin derivatives in the crude extracts was verified by checking the expected masses via LC-HRMS.
(§4) All microorganisms were handled according to standard procedures as recommended by the depositor. Strains were obtained from the German Collection of Cell Cultures and Microorganisms (Klebsiella pneumoniae DSM-30104, Acinetobacter baumannii DSM-30007 and A. baumannii DSM-30008), the American Type Culture Collection (Escherichia coli ATCC-25922), or were part of our internal strain collection (Pseudomonas aeruginosa PAO1, PA14 and PA14ΔmexAB).
(§5) For the MIC assay, 10 μl of crude extract of each test sample, diluted in 50% methanol/H2O, was added each into a well of the first row of a 96 well plate. […] Then, 75 μl of cation-adjusted Mueller-Hinton broth medium was added to each well and the samples contained in the first row were mixed with the 75 μl medium/extract mixture. Starting from the 150 μl mixtures in the first row, serial dilutions of the respective mixtures were prepared in corresponding subjacent rows of the 96 well plate. […]
For orientation: Dilution methods test growth across graded concentrations, often in twofold steps.

The next assay relates to P. aeruginosa PAO1. The assay is described as above. The format is cell-based, Pseudomonas aeruginosa. As to the method: as §3, §4, §5
In assay [5] the test system is E. coli ATCC25922. The assay is described as above. The format is cell-based, Escherichia coli. As for the experimental part:
as §3, §4, §5

Another assay concerns A. baumannii DSM-30008. Described as above. The assay is classed as cell-based, Acinetobacter baumannii. To be noted: A. baumannii DMS-30008. As for the experimental part:
as §3, §4, §5

The subject of assay [6] is A. baumannii 038 (OXA-23). Briefly: MIC against clinical isolates of A. baumannii. The format is cell-based, Acinetobacter baumannii. The note with it: clinical isolate A. baumannii 038 (OXA-23).
Assay [7] relates to A. baumannii 045 (OXA-58). The assay is described as follows: MIC against clinical isolates of A. baumannii. The assay is classed as cell-based, Acinetobacter baumannii. To be noted: clinical isolate A. baumannii 045 (OXA-58).
In assay [8] the test system is A. baumannii 046 (OXA-40). Briefly: MIC against clinical isolates of A. baumannii. The assay is classed as cell-based, Acinetobacter baumannii. The note with it: clinical isolate A. baumannii 046 (OXA-40).
Assay [9] has as its system A. baumannii 047 (OXA-235). Briefly: MIC against clinical isolates of A. baumannii. The format is cell-based, Acinetobacter baumannii. The note with it: clinical isolate A. baumannii 047 (OXA-235).
In the next assay the test system is A. baumannii 070 (NDM-1). The assay is described as follows: MIC against clinical isolates of A. baumannii. The format is cell-based, Acinetobacter baumannii. The note with it: clinical isolate A. baumannii 070 (NDM-1).
In assay [10] the test system is A. baumannii 054 (OXA-51-ISAba1). The assay is described as follows: MIC against clinical isolates of A. baumannii. The format is cell-based, Acinetobacter baumannii. The note with it: clinical isolate A. baumannii 054 (OXA-51-ISAba1).

Consider `N=C(N)NCC[C@H]1c2ccc3c(c[nH]c3c2)[C@H]2Oc3cccc4c(c[nH]c34)C[C@H](N)C(=O)N[C@@H](CC(N)=O)C(=O)N[C@@H]2C(=O)N[C@@H](CO)C(=O)N[C@@H]1C(=O)N[C@@H](CO)C(=O)N[C@@H](Cc1ccccc1)C(=O)O` [Darobactin D], for which the Relative activity result is “++++” in [1], 0 in [2], “++++” in assay [3] and “++++” in the assay on E. coli ATCC25922 [4].

With `NCCC[C@H]1c2ccc3c(c[nH]c3c2)[C@H]2Oc3cccc4c(c[nH]c34)C[C@H](N)C(=O)N[C@@H](CC(N)=O)C(=O)N[C@@H]2C(=O)N[C@@H](CO)C(=O)N[C@@H]1C(=O)N[C@@H](CO)C(=O)N[C@@H](Cc1ccc(O)cc1)C(=O)O` [Darobactin 10], the Relative activity in [1] is listed as 0; in assay [2], 0; in [3] it was “+”; with E. coli ATCC25922 [4], 0.

Regarding `NCCC[C@H]1c2ccc3c(c[nH]c3c2)[C@H]2Oc3cccc4c(c[nH]c34)C[C@H](N)C(=O)N[C@@H](CCC(N)=O)C(=O)N[C@@H]2C(=O)N[C@@H](CO)C(=O)N[C@@H]1C(=O)N[C@@H](CO)C(=O)N[C@@H](Cc1ccccc1)C(=O)O` [Darobactin 11], the Relative activity result in [1] is “+++++”; in assay [2], “++++”; in assay [3], “+++++”; in the assay with E. coli ATCC25922 [4], “+++++”.

Take `C[C@@H](O)[C@@H]1NC(=O)[C@H]2NC(=O)[C@H](CC(N)=O)NC(=O)[C@@H](N)Cc3c[nH]c4c(cccc34)O[C@@H]2c2c[nH]c3cc(ccc23)C(CCNC(=N)N)[C@@H](C(=O)N[C@@H](CCCNC(=N)N)C(=O)N[C@@H](Cc2c[nH]c3ccccc23)C(=O)O)NC1=O` (stereo partly shown) [Darobactin 39]: the “Concentration factor of crude extract at which full growth inhibition is observed” value was 0.42x with K. pneumoniae DSM-30104, 0.11x in the assay with P. aeruginosa PAO1, 0.42x with E. coli ATCC25922 [5] and 0.05x with A. baumannii DSM-30008.

Turning to `C[C@@H]1NC(=O)[C@H]2NC(=O)[C@H](CC(N)=O)NC(=O)[C@@H](N)Cc3c[nH]c4c(cccc34)O[C@@H]2c2c[nH]c3cc(ccc23)[C@H](CCCN)[C@@H](C(=O)N[C@@H](CO)C(=O)N[C@@H](Cc2c[nH]c3ccccc23)C(=O)O)NC1=O` [Darobactin 30], the “Concentration factor of crude extract at which full growth inhibition is observed” value in the assay with K. pneumoniae DSM-30104 is recorded as 1.67x; in the assay on P. aeruginosa PAO1, 0.11x; with E. coli ATCC25922 [5], 0.83x; with A. baumannii DSM-30008, 0.83x.

Broadly, the MIC is the smallest concentration in the dilution series that meets the test's criterion for growth inhibition. Lower therefore signals greater potency. Consider `CCCCCCC1OC(=O)CNC(=O)C(C(C)O)NC(=O)C(CO)NC(=O)C(C(C)CC)NC(=O)C(CC(C)C)N(C)C(=O)C1C` (stereo not shown) [Globomycin], for which the MIC in assay [6] was 32 µg/mL (≈ 48.8 µM); in assay [7], 64 µg/mL (≈ 97.6 µM); in assay [8], 32 µg/mL (≈ 48.8 µM); in [9], 64 µg/mL (≈ 97.6 µM); with A. baumannii 070 (NDM-1), 16 µg/mL (≈ 24.4 µM); in assay [10], above 64 µg/mL.

Consider `C[C@@H]1NC(=O)[C@H]2NC(=O)[C@H](CC(N)=O)NC(=O)[C@@H](N)Cc3c[nH]c4c(cccc34)O[C@@H]2c2c[nH]c3cc(ccc23)[C@H](CCCN)[C@@H](C(=O)N[C@@H](CO)C(=O)N[C@@H](Cc2ccccc2)C(=O)O)NC1=O` [Darobactin 14], for which the Relative activity result in assay [1] is “++”; in assay [2], “+++”; in assay [3], “++”; in the assay on E. coli ATCC25922 [4], “+++”.

For `C[C@H](NC(=O)[C@H]1NC(=O)[C@H](CO)NC(=O)[C@H]2NC(=O)[C@H](CC(N)=O)NC(=O)[C@@H](N)Cc3c[nH]c4c(cccc34)O[C@@H]2c2c[nH]c3cc(ccc23)[C@@H]1CCCN)C(=O)N[C@@H](Cc1ccccc1)C(=O)O` [Darobactin 16], the Relative activity result (in assay [1]; in assay [2]; in assay [3]; in the assay on E. coli ATCC25922 [4]) was “+” in each case.

The values are drawn from patent US20250276998A1, “NOVEL DAROBACTIN DERIVATIVES” (Helmholtz-Zentrum Fur Infektionsforschung GmbH, priority 2021, published 2025).
